Results taken from ChEMBL document CHEMBL4715829, “Heterodimeric Rifampicin-Tobramycin conjugates break intrinsic resistance of Pseudomonas aeruginosa to doxycycline and chloramphenicol in vitro and in a Galleria mellonella in vivo model” (Eur J Med Chem, 2019).

Assays:
[1] = Toxicity in Galleria mellonella larvae assessed as larval survival at 100 mg/kg measured after 96 hrs; format: organism-based; conditions: in vivo
Pseudomonas aeruginosa [2] = assay: Antibacterial activity against Pseudomonas aeruginosa 264-101354 assessed as potentiation of doxycycline-induced antibacterial activity by measuring doxycycline MIC at 9.8 uM incubated for 18 hrs in presence of doxycycline by broth microdilution assay (reference value: 64 ug/ml); format: functional
Pseudomonas aeruginosa [3] = assay: Antibacterial activity against Pseudomonas aeruginosa 101885 assessed as potentiation of chloramphenicol-induced antibacterial activity by measuring chloramphenicol MIC at 9.8 uM incubated for 18 hrs in presence of chloramphenicol by broth microdilution assay (reference value: 512 ug/ml); format: functional
Pseudomonas aeruginosa [4] = assay: Antibacterial activity against Pseudomonas aeruginosa 91433 assessed as potentiation of chloramphenicol-induced antibacterial activity by measuring chloramphenicol MIC at 9.8 uM incubated for 18 hrs in presence of chloramphenicol by broth microdilution assay (reference value: 8 ug/ml); format: functional
Pseudomonas aeruginosa [5] = assay: Antibacterial activity against Pseudomonas aeruginosa 100036 assessed as fractional inhibitory concentration incubated for 18 hrs in presence of rifampicin by broth microdilution assay; format: functional
Pseudomonas aeruginosa [6] = assay: Antibacterial activity against Pseudomonas aeruginosa 101885 assessed as fractional inhibitory concentration incubated for 18 hrs in presence of minocycline by broth microdilution assay; format: functional
Pseudomonas aeruginosa [7] = assay: Antibacterial activity against Pseudomonas aeruginosa 259-96918 assessed as fractional inhibitory concentration incubated for 18 hrs in presence of minocycline by broth microdilution assay; format: functional
Pseudomonas aeruginosa [8] = assay: Antibacterial activity against Pseudomonas aeruginosa 91433 assessed as fractional inhibitory concentration incubated for 18 hrs in presence of minocycline by broth microdilution assay; format: functional
Pseudomonas aeruginosa [9] = assay: Antibacterial activity against Pseudomonas aeruginosa 114228 assessed as fractional inhibitory concentration incubated for 18 hrs in presence of minocycline by broth microdilution assay; format: functional
Pseudomonas aeruginosa [10] = assay: Antibacterial activity against Pseudomonas aeruginosa 259-96918 assessed as fractional inhibitory concentration index incubated for 18 hrs in presence of tigecycline by broth microdilution assay; format: functional
Pseudomonas aeruginosa [11] = assay: Potentiation of doxycycline-induced antibacterial activity against Pseudomonas aeruginosa PAO200 harboring mexA-mexB-oprM deletion mutant assessed as fold change in doxycycline MIC at <=9.8 uM incubated for 18 hrs in presence of doxycycline by broth microdilution assay; format: functional; conditions: dose microM <=9.8
Pseudomonas aeruginosa [12] = assay: Potentiation of chloramphenicol-induced antibacterial activity against Pseudomonas aeruginosa PAO200 harboring mexA-mexB-oprM deletion mutant assessed as fold change in chloramphenicol MIC at <=9.8 uM incubated for 18 hrs in presence of chloramphenicol by broth microdilution assay; format: functional; conditions: dose microM <=9.8
Pseudomonas aeruginosa [13] = assay: Antibacterial activity against Pseudomonas aeruginosa 260-97103 infected in Galleria mellonella larvae assessed as survival of larvae at 100 mg/kg treated at 3 hrs post-infection in presence of doxycycline and measured after 18 hrs relative to control; format: functional
Pseudomonas aeruginosa [14] = assay: Antibacterial activity against Pseudomonas aeruginosa 260-97103 infected in Galleria mellonella larvae assessed as survival of larvae at 75 mg/kg treated at 3 hrs post-infection in presence of doxycycline and measured after 24 hrs relative to control; format: functional
Pseudomonas aeruginosa [15] = assay: Potentiation of doxycycline-induced antibacterial activity against Pseudomonas aeruginosa 114228 assessed as fold change in doxycycline MIC at 9.8 uM incubated for 18 hrs in presence of doxycycline by broth microdilution assay relative to control; format: functional
Pseudomonas aeruginosa [16] = assay: Potentiation of doxycycycline-induced bactericidal activity against Pseudomonas aeruginosa PAO1 assessed as reduction in bacterial colonies incubated for >= 24 hrs in LB medium in presence of doxycycline followed by plating on agar plate and measured after 20 hrs by time-kill assay; format: functional, organism-based; conditions: dose 4.9-9.8 µM, time hrs >=44
Pseudomonas aeruginosa [17] = assay: Potentiation of chloramphenicol-induced bactericidal activity against Pseudomonas aeruginosa PAO1 assessed as reduction in bacterial colonies incubated for >= 24 hrs in LB medium in presence of chloramphenicol followed by plating on agar plate and measured after 20 hrs by time-kill assay; format: functional, organism-based; conditions: dose 4.9-9.8 µM, time hrs >=44
Pseudomonas aeruginosa [18] = assay: Antibacterial activity against wild type Pseudomonas aeruginosa PAO1 assessed as reduction in bacterial growth by measuring doxycycline MIC at 0.25 ug/ml incubated for 18 hrs in presence of doxycycline by broth microdilution assay (reference value: 16 ug/ml); format: functional; conditions: dose 0.25 µg/ml
Pseudomonas aeruginosa [19] = assay: Antibacterial activity against Pseudomonas aeruginosa 91433 assessed as fractional inhibitory concentration in presence of chloramphenicol incubated for 18 hrs by broth microdilution assay; format: functional
Pseudomonas aeruginosa [20] = assay: Antibacterial activity against Pseudomonas aeruginosa 262-101856 assessed as potentiation of chloramphenicol-induced antibacterial activity by measuring chloramphenicol MIC at 7.6 uM incubated for 18 hrs in presence of chloramphenicol by broth microdilution assay (reference value: 2048 ug/ml); format: functional
Pseudomonas aeruginosa [21] = assay: Antibacterial activity against Pseudomonas aeruginosa 101885 assessed as potentiation of doxycycline-induced antibacterial activity by measuring doxycycline MIC at 7.6 uM incubated for 18 hrs in presence of doxycycline by broth microdilution assay (reference value: 64 ug/ml); format: functional
Pseudomonas aeruginosa [22] = assay: Antibacterial activity against Pseudomonas aeruginosa 114228 assessed as potentiation of chloramphenicol-induced antibacterial activity by measuring chloramphenicol MIC at 7.6 uM incubated for 18 hrs in presence of chloramphenicol by broth microdilution assay (reference value: 64 ug/ml); format: functional
Pseudomonas aeruginosa [23] = assay: Potentiation of doxycycline-induced antibacterial activity against Pseudomonas aeruginosa 262-101856 assessed as fold change in doxycycline MIC at 7.6 uM incubated for 18 hrs in presence of doxycycline by broth microdilution assay relative to control; format: functional
Pseudomonas aeruginosa [24] = assay: Potentiation of doxycycline-induced antibacterial activity against Pseudomonas aeruginosa 260-97103 assessed as fold change in doxycycline MIC at 7.6 uM incubated for 18 hrs in presence of doxycycline by broth microdilution assay relative to control; format: functional
Pseudomonas aeruginosa [25] = assay: Potentiation of chloramphenicol-induced antibacterial activity against Pseudomonas aeruginosa 264-101354 assessed as fold change in chloramphenicol MIC at 7.6 uM incubated for 18 hrs in presence of chloramphenicol by broth microdilution assay relative to control; format: functional
Pseudomonas aeruginosa [26] = assay: Potentiation of chloramphenicol-induced antibacterial activity against Pseudomonas aeruginosa 91433 assessed as fold change in chloramphenicol MIC at 7.6 uM incubated for 18 hrs in presence of chloramphenicol by broth microdilution assay relative to control; format: functional
Klebsiella pneumoniae = assay: Potentiation of chloramphenicol-induced antibacterial activity against Klebsiella pneumoniae ATCC 16381 assessed as fold change in chloramphenicol MIC at 7.6 uM incubated for 18 hrs in presence of chloramphenicol by broth microdilution assay relative to control; format: functional
Pseudomonas aeruginosa [27] = assay: Antibacterial activity against Pseudomonas aeruginosa 260-97103 assessed as reduction in bacterial growth by measuring chloramphenicol MIC at 2 ug/ml incubated for 18 hrs in presence of chloramphenicol by broth microdilution assay (reference value: 128 ug/ml); format: functional; conditions: dose 2 µg/ml
Pseudomonas aeruginosa [28] = assay: Antibacterial activity against Pseudomonas aeruginosa 100036 assessed as reduction in bacterial growth by measuring doxycycline MIC at 4 ug/ml incubated for 18 hrs in presence of doxycycline by broth microdilution assay (reference value: 64 ug/ml); format: functional; conditions: dose 4 µg/ml

CO[C@H]1/C=C/O[C@@]2(C)Oc3c(C)c(O)c4c(O)c(c(/C=N/N5CCN(Cc6cn(CCCCCCO[C@@H]7[C@@H](O[C@H]8O[C@H](CO)[C@@H](O)[C@H](N)[C@H]8O)[C@H](N)C[C@H](N)[C@H]7O[C@H]7O[C@H](CN)[C@@H](O)C[C@H]7N)nn6)CC5)c(O)c4c3C2=O)NC(=O)/C(C)=C\C=C\[C@H](C)[C@H](O)[C@@H](C)[C@@H](O)[C@@H](C)[C@H](OC(C)=O)[C@@H]1C.Cl.Cl.Cl.Cl.Cl
survival at 96 h [1]: 100%
MIC (Pseudomonas aeruginosa [2]): 0.125 µg/mL
MIC (Pseudomonas aeruginosa [3]): 8 µg/mL
MIC (Pseudomonas aeruginosa [4]): 2 µg/mL
FIC (Pseudomonas aeruginosa [5]): 0.063
FIC (Pseudomonas aeruginosa [6]): 0.063
FIC (Pseudomonas aeruginosa [7]): <0.125
FIC (Pseudomonas aeruginosa [8]): <0.125
FIC (Pseudomonas aeruginosa [9]): <0.031
fractional inhibitory concentration index (FICI) (Pseudomonas aeruginosa [10]): <0.25
fold change (FC) (Pseudomonas aeruginosa [11]): 8
fold change (FC) (Pseudomonas aeruginosa [12]): 16
survival at 100 mg/kg (Pseudomonas aeruginosa [13]): 87%
survival at 75 mg/kg (Pseudomonas aeruginosa [14]): 55%
fold change (FC) (Pseudomonas aeruginosa [15]): 4
Activity (Pseudomonas aeruginosa [16]): Dose-dependent effect
Activity (Pseudomonas aeruginosa [17]): Dose-dependent effect

NC[C@H]1O[C@H](O[C@H]2[C@H](O)[C@@H](O[C@H]3O[C@H](CO)[C@@H](O)[C@H](N)[C@H]3O)[C@H](N)C[C@@H]2N)[C@H](N)C[C@@H]1O [TOBRAMYCIN]
MIC (Pseudomonas aeruginosa [18]): 8 µg/mL
FIC (Pseudomonas aeruginosa [19]): 0.5

CO[C@H]1/C=C/O[C@@]2(C)Oc3c(C)c(O)c4c(O)c(c(/C=N/N5CCN(Cc6cn(CCCCCCCCCCCCO[C@@H]7[C@@H](O[C@H]8O[C@H](CO)[C@@H](O)[C@H](N)[C@H]8O)[C@H](N)C[C@H](N)[C@H]7O[C@H]7O[C@H](CN)[C@@H](O)C[C@H]7N)nn6)CC5)c(O)c4c3C2=O)NC(=O)/C(C)=C\C=C\[C@H](C)[C@H](O)[C@@H](C)[C@@H](O)[C@@H](C)[C@H](OC(C)=O)[C@@H]1C.O=C(O)C(F)(F)F.O=C(O)C(F)(F)F.O=C(O)C(F)(F)F.O=C(O)C(F)(F)F.O=C(O)C(F)(F)F
MIC (Pseudomonas aeruginosa [20]): 128 µg/mL
MIC (Pseudomonas aeruginosa [21]): 2 µg/mL
MIC (Pseudomonas aeruginosa [22]): 8 µg/mL
fold change (FC) (Pseudomonas aeruginosa [23]): 4
fold change (FC) (Pseudomonas aeruginosa [24]): 4
fold change (FC) (Pseudomonas aeruginosa [25]): 4
fold change (FC) (Pseudomonas aeruginosa [26]): 4
fold change (FC) (Klebsiella pneumoniae): 0

CO[C@H]1/C=C/O[C@@]2(C)Oc3c(C)c(O)c4c(O)c(c(/C=N/N5CCN(C)CC5)c(O)c4c3C2=O)NC(=O)/C(C)=C\C=C\[C@H](C)[C@H](O)[C@@H](C)[C@@H](O)[C@@H](C)[C@H](OC(C)=O)[C@@H]1C [RIFAMPIN]
MIC (Pseudomonas aeruginosa [27]): 128 µg/mL
MIC (Pseudomonas aeruginosa [28]): 64 µg/mL
